In brackets after ≈: the same amount, converted by molar mass.
Settings: buffer; pH 7.4; 200.0 µM

Structure (SMILES) | solubility kinetic [µg/mL]
Cc1ccc(S(=O)(=O)Nc2ccccc2C(=O)N2CCOCC2)cc1 | > 54.1
CC(=O)c1cccc(NC(=O)CC2CCCC2)c1 | > 36.8
N#Cc1cccnc1Oc1ccccc1 | 25.3 (≈ 129 µM)
CCOC(=O)CNC(=O)c1ccc(SCC)cc1 | > 40.1
O=C(CNCc1ccccc1Cl)Nc1cc(S(=O)(=O)N2CCOCC2)ccc1Cl | 14.5 (≈ 31.6 µM)
Cc1ccccc1C(=O)NC(C(N)=O)P(=O)(OC(C)C)OC(C)C (stereo not given) | > 53.5
CN(C)c1ccc(Nc2ccc([N+](=O)[O-])cn2)cc1 | 1 (≈ 3.87 µM)
Cc1cc(C)cc(NC(=O)c2ccc3c(c2)CCN3S(C)(=O)=O)c1 | 0.5 (≈ 1.45 µM)
COc1ccc(NC(=O)Nc2cccnc2)cc1 | > 36.5
CS(=O)(=O)c1cccc(C(=O)OCC(=O)NC(=O)Nc2ccccc2F)c1 | 5.2 (≈ 13.2 µM)
COC(=O)c1ccc(N2CCN(C(=O)C3CC3)CC2)c([N+](=O)[O-])c1 | > 50
COc1c(Cl)cc(C(=O)NCc2ccco2)cc1Cl | 40.2 (≈ 134 µM)
COc1ccc(OCC(=O)Nc2ccc3c(c2)OCO3)cc1 | 42.3 (≈ 140 µM)
Cl.OC(CN1CCOCC1)Cn1c2c(c3ccccc31)CCCC2 (stereo not given) | 51.3
CCOc1ccc(N2C(=O)/C(=C/c3ccccn3)SC2=S)cc1 | < 0.4
Cc1cc(C)nc(Sc2ncnc(N)c2[N+](=O)[O-])n1 | > 41.7
Cc1ccc(O)c(Nc2nc(-c3ccccc3)nc3ccccc23)c1 | < 0.2
CCCNC(=O)CSc1nc(Cc2ccccc2)nc2ccccc12 | 8.2 (≈ 23.3 µM)
O=C(c1cccc(Oc2ccc([N+](=O)[O-])cc2)c1)N1CCOCC1 | > 49.2
O=C(CSc1ccccc1F)Nc1ccc2c(c1)OCO2 | 45.4 (≈ 149 µM)

Structure (SMILES) | solubility kinetic [µg/mL]
Cc1ccc(C)c(NC(=O)C2COc3ccccc3O2)c1 (stereo not given) | 3.5 (≈ 12.4 µM)
O=C(Nc1nnc(-c2ccco2)o1)c1cccc(N2C(=O)CCC2=O)c1 | > 52.8
NS(=O)(=O)c1ccc(CCNC(=O)c2ccncc2)cc1 | > 45.8
CCC(=O)Nc1c(-c2ccc(C)cc2)c(=O)c2ccccc2n1C | 20.8 (≈ 64.9 µM)
N#Cc1ccc(NC(=O)c2cccs2)nc1 | > 34.4
COc1ccccc1NC(=O)CN1CCSc2ccccc21 | 3.1 (≈ 9.86 µM)
Cc1cccnc1NC(=O)c1ccc2c(c1)OCO2 | > 38.4
CC(C)[C@H](NC(N)=O)C(=O)NCCc1ccc(Cl)cc1Cl | 48.2 (≈ 145 µM)
CCOC(=O)/C(C#N)=C/Nc1ccccc1OC(F)(F)F | 1.2 (≈ 4 µM)
Cc1cccc(C(=O)NCCC(=O)Nc2ccc(C#N)cc2)c1 | 1.3 (≈ 4.23 µM)
O=C(NC1C2CC3CC(C2)CC1C3)c1ccc(Br)o1 (stereo not given) | 27.8 (≈ 85.7 µM)
Cc1ccc(-c2c(NCCc3ccccc3)c(=O)c2=O)cc1 | < 0.6
CCCn1c(CCNC(=O)c2ccco2)nc2ccccc21 | 41.7 (≈ 140 µM)
O=C(CS(=O)(=O)c1ccccc1)NCc1ccc(Cl)cc1 | 2.7 (≈ 8.34 µM)
c1ccc2[nH]c(SN3CCOCC3)nc2c1 | 10.8 (≈ 45.9 µM)
COCCSc1ccccc1C(=O)Nc1ccccc1C#N | > 46.9
OCCCNc1ncnc2scc(-c3ccc(Cl)cc3)c12 | > 48
Cc1nc(CSc2nnc(N)s2)cs1 | > 36.7
Fc1ccc(-c2csc(NC(=S)Nc3ccccc3)n2)cc1 | 1.6 (≈ 4.86 µM)
Cc1cc(OCC(=O)N2CCOCC2)ccc1[N+](=O)[O-] | > 42

Structure (SMILES) | solubility kinetic [µg/mL]
Cc1cccc(OP(N)(=O)Oc2cccc(C)c2C)c1C | 3.9 (≈ 12.8 µM)
CC(C)[C@H](NC(=O)c1ccc(Cl)cc1)C(=O)OCC(=O)N1CCN(c2ccccc2)CC1 | 52.5 (≈ 115 µM)
O=C1CCCC(=O)N1c1ccc(N2CCOCC2)c([N+](=O)[O-])c1 | > 47.9
O=C(CCCN1C(=O)c2cccnc2C1=O)Nc1ccccc1F | 46.4 (≈ 142 µM)
CCCN1CCN(S(=O)(=O)c2cn(C)nc2C)CC1 | > 43
COc1ccc(NC(=O)CS(=O)(=O)c2ccccc2Cl)cc1 | 43.8 (≈ 129 µM)
Cc1cccc(-n2c(O)c(C=NCCN3CCCCC3)c(=O)[nH]c2=O)c1 | > 53.5
O=C(NCCCn1ccnc1)c1ccc(Br)s1 | 46.9 (≈ 149 µM)
CCOC(=O)C1=C(C)NC(C)=C(C(=O)OCC)C1C(=O)OCC(=O)N1CCOCC1 | > 63.7
O=C(CN1CCOCC1)Nc1ccc(Cl)cn1 | > 38.4
CC(Sc1ccccc1F)C(=O)Nc1ccc2c(c1)OCCO2 (stereo not given) | > 50
Cc1ccc(S(=O)(=O)N(C)c2ccc(OCC(=O)OCc3ccc(C#N)cc3)cc2)cc1 | 8.4 (≈ 18.6 µM)
COc1ccc(S(=O)(=O)n2cccc2)cc1OC | 11.8 (≈ 44.1 µM)
Cc1ccc(/C=N\NC(=O)C2CC(=O)N(c3ccccc3)C2)o1 (stereo not given) | > 46.7
Cc1c(-c2ccc(Br)cc2)[n+](=O)c2c(n1[O-])CCCC2 | > 50.3
Cc1ccc(OCCNC(=O)CNC(=O)c2ccc(Cl)c([N+](=O)[O-])c2)cc1 | 12.6 (≈ 32.2 µM)
CCN1CCCC1CNC(=O)C(=O)NC(C)c1ccccc1 (stereo not given) | > 45.5
CC(=O)Nc1ccc(S(=O)(=O)NC2CC2)cc1 | 37.6 (≈ 148 µM)
CCc1ccc(NC(=S)Nc2ccc3[nH]c(=O)[nH]c3c2)cc1 | 13.5 (≈ 43.2 µM)
O=C(NCC1CCCO1)c1ccc(N2C(=O)C3CCCCC3C2=O)cc1 (stereo not given) | 44.9 (≈ 126 µM)

— PubChem BioAssay AID1996
